Source: PubChem BioAssay AID328 (DTP/NCI, 2004)
“And” between values parts separate entries of the source, which are not always exact repeats. Equal values may be shown once. Toxic doses and inconclusive results are not listed.

Tested on: BDF1 mice, P388 leukemia ip, median survival T/C
Experiment: NCI In Vivo Anticancer Drug Screen. Data for tumor model P388 Leukemia (intraperitoneal) in B6D2F1 (BDF1) mice
Details: endpoint: median survival time, higher = longer survival
How it was run: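 In tumour-bearing mice, survival after compound treatment is set against the vehicle group and given as a quotient.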

[1] = dose: 12.5 mg/kg/injection, schedule: Q01DX009 (ip), vehicle: water
[2] = dose: 25.0 mg/kg/injection, schedule: Q01DX009 (ip), vehicle: water
[3] = dose: 50.0 mg/kg/injection, schedule: Q01DX009 (ip), vehicle: water
[4] = dose: 100.0 mg/kg/injection, schedule: Q01DX009 (ip), vehicle: water
[5] = dose: 100.0 mg/kg/injection, schedule: Q04DX003 (ip), vehicle: water
[6] = dose: 200.0 mg/kg/injection, schedule: Q01DX009 (ip), vehicle: water
[7] = dose: 400.0 mg/kg/injection, schedule: Q01DX009 (ip), vehicle: water
[8] = dose: 50.0 mg/kg/injection, schedule: Q04DX003 (ip), vehicle: water
[9] = dose: 200.0 mg/kg/injection, schedule: Q04DX003 (ip), vehicle: water
[10] = dose: 100.0 mg/kg/injection, schedule: Q01DX009 (ip), vehicle: saline with Tween-80
[11] = dose: 100.0 mg/kg/injection, schedule: Q04DX003 (ip), vehicle: saline with Tween-80
[12] = dose: 200.0 mg/kg/injection, schedule: Q04DX003 (ip), vehicle: saline with Tween-80
[13] = dose: 400.0 mg/kg/injection, schedule: Q04DX003 (ip), vehicle: saline with Tween-80
[14] = dose: 100.0 mg/kg/injection, schedule: Q04DX003 (ip), vehicle: saline sonified
[15] = dose: 50.0 mg/kg/injection, schedule: Q01DX009 (ip), vehicle: saline
[16] = dose: 100.0 mg/kg/injection, schedule: Q04DX003 (ip), vehicle: saline
[17] = dose: 25.0 mg/kg/injection, schedule: Q01DX009 (ip), vehicle: saline
[18] = dose: 50.0 mg/kg/injection, schedule: Q04DX003 (ip), vehicle: saline
[19] = dose: 6.25 mg/kg/injection, schedule: Q01DX009 (ip), vehicle: saline

COc1ccc(CN2CC(C)NC(C)C2)cc1 (centres undefined)
T/C (dose: 3.12 mg/kg/injection, schedule: Q01DX009 (ip), vehicle: water): 108 % of control
T/C (dose: 6.25 mg/kg/injection, schedule: Q01DX009 (ip), vehicle: water): 103 % of control
T/C [1]: 95 % of control
T/C [2]: 91 % of control
T/C [3]: 117 % of control
T/C [4]: 100 % of control
T/C [5]: 99 % of control
T/C [6]: 98 % of control
T/C (dose: 300.0 mg/kg/injection, schedule: Q01DX009 (ip), vehicle: water): 117 % of control
T/C [7]: 97 % of control

COc1cc(C=Nc2cccc(Cl)c2)ccc1N(CCCl)CCCl
T/C (dose: 8.0 mg/kg/injection, schedule: Q04DX003 (ip), vehicle: saline with Tween-80): 195 % of control
T/C (dose: 12.5 mg/kg/injection, schedule: Q01DX009 (ip), vehicle: saline with Tween-80): 187 % of control
T/C (dose: 16.0 mg/kg/injection, schedule: Q04DX003 (ip), vehicle: saline with Tween-80): 187 % of control
T/C (dose: 25.0 mg/kg/injection, schedule: Q01DX009 (ip), vehicle: saline with Tween-80): 187 % of control
T/C (dose: 33.0 mg/kg/injection, schedule: Q04DX003 (ip), vehicle: saline with Tween-80): 207 % of control
T/C (dose: 50.0 mg/kg/injection, schedule: Q01DX009 (ip), vehicle: saline with Tween-80): 95 % of control
T/C (dose: 50.0 mg/kg/injection, schedule: Q04DX003 (ip), vehicle: saline with Tween-80): 230 % of control

O=C1C(F)=C(N2CC2)C(=O)C(N2CCOCC2)=C1N1CC1
T/C (dose: 3.0 mg/kg/injection, schedule: Q01DX009 (ip), vehicle: saline): 157 % of control
T/C (dose: 6.0 mg/kg/injection, schedule: Q01DX009 (ip), vehicle: saline): 99 % of control

CN=C(N)Nc1ccc(C(=O)Oc2ccc([N+](=O)[O-])cc2)cc1
T/C [1]: 89 % of control
T/C [2]: 95 % of control
T/C [3]: 87 % of control
T/C [8]: 122 % of control
T/C [5]: 110 % of control
T/C [6]: 105 % of control
T/C [9]: 113 % of control

C/C=C(/Cl)c1c(C)cc(C)cc1C
T/C [10]: 108 % of control
T/C [11]: 100 % of control
T/C (dose: 200.0 mg/kg/injection, schedule: Q01DX009 (ip), vehicle: saline with Tween-80): 108 % of control
T/C [12]: 111 % of control
T/C [13]: 103 % of control

CCO/C=C/C=C1C(=O)N(C)C(=O)N(C)C1=O
T/C (dose: 50.0 mg/kg/injection, schedule: Q01DX009 (ip), vehicle: other): 122 % of control

CCN(CC)C(=O)C1=NNc2ccc(Cl)cc2C(=O)N1C
T/C [11]: 100 % of control
T/C [12]: 109 % of control
T/C [13]: 97 % of control

COc1cc2oc(-c3ccc(O)cc3O)c(CC=C(C)C)c(=O)c2c(O)c1/C=C/C(C)C
T/C (dose: 4.1 mg/kg/injection, schedule: Q01DX009 (ip), vehicle: Klucel (hydroxypropylcellulose) (HPC)): 115 % of control
T/C (dose: 6.25 mg/kg/injection, schedule: Q01DX009 (ip), vehicle: Klucel (hydroxypropylcellulose) (HPC)): 106 % of control
T/C (dose: 9.3 mg/kg/injection, schedule: Q01DX009 (ip), vehicle: Klucel (hydroxypropylcellulose) (HPC)): 110 % of control
T/C (dose: 12.5 mg/kg/injection, schedule: Q01DX009 (ip), vehicle: Klucel (hydroxypropylcellulose) (HPC)): 116 % of control
T/C (dose: 25.0 mg/kg/injection, schedule: Q01DX009 (ip), vehicle: Klucel (hydroxypropylcellulose) (HPC)): 98 % of control
T/C (dose: 50.0 mg/kg/injection, schedule: Q01DX009 (ip), vehicle: Klucel (hydroxypropylcellulose) (HPC)): 91 % of control
T/C (dose: 100.0 mg/kg/injection, schedule: Q01DX009 (ip), vehicle: Klucel (hydroxypropylcellulose) (HPC)): 94 % of control

CCC[CH2][Sn]1([CH2]CCC)[N](S(=O)(=O)c2ccc(C)cc2)c2ccccc2[N]1S(=O)(=O)c1ccc(C)cc1
T/C (dose: 1.5 mg/kg/injection, schedule: Q01DX009 (ip), vehicle: Klucel (hydroxypropylcellulose) (HPC)): 91 % of control
T/C (dose: 6.0 mg/kg/injection, schedule: Q01DX009 (ip), vehicle: Klucel (hydroxypropylcellulose) (HPC)): 150 % of control
T/C (dose: 12.0 mg/kg/injection, schedule: Q01DX009 (ip), vehicle: Klucel (hydroxypropylcellulose) (HPC)): 176 % of control

CCOC(Cn1ccc(=O)[nH]c1=O)OCC
T/C [14]: 100 % of control
T/C (dose: 200.0 mg/kg/injection, schedule: Q04DX003 (ip), vehicle: saline sonified): 104 % of control
T/C (dose: 400.0 mg/kg/injection, schedule: Q04DX003 (ip), vehicle: saline sonified): 109 % of control

NC(=O)c1nc2c([nH]c1=O)CCCC2
T/C [15]: 101 % of control
T/C (dose: 100.0 mg/kg/injection, schedule: Q01DX009 (ip), vehicle: saline): 100 % of control
T/C [16]: 109 % of control
T/C (dose: 200.0 mg/kg/injection, schedule: Q01DX009 (ip), vehicle: saline): 110 % of control
T/C (dose: 200.0 mg/kg/injection, schedule: Q04DX003 (ip), vehicle: saline): 104 % of control
T/C (dose: 400.0 mg/kg/injection, schedule: Q01DX009 (ip), vehicle: saline): 93 % of control
T/C (dose: 400.0 mg/kg/injection, schedule: Q04DX003 (ip), vehicle: saline): 95 % of control

C1CCC2C(C1)NC1CCCCC12 (centres undefined)
T/C (dose: 12.0 mg/kg/injection, schedule: Q04DX003 (ip), vehicle: saline): 109 % of control
T/C (dose: 12.5 mg/kg/injection, schedule: Q01DX001 (ip), vehicle: saline sonified): 100 % of control
T/C (dose: 25.0 mg/kg/injection, schedule: Q01DX001 (ip), vehicle: saline sonified): 90 % of control
T/C [17]: 112 % of control
T/C (dose: 25.0 mg/kg/injection, schedule: Q04DX003 (ip), vehicle: saline): 95 % of control
T/C (dose: 50.0 mg/kg/injection, schedule: Q01DX001 (ip), vehicle: saline sonified): 90 % of control
T/C [15]: 104 % of control
T/C [18]: 109 % of control

CC1CCC[N-]C1.CC1CCC[N-]C1.[Cl][Pt+2]([Cl])([Cl])[Cl] (centres undefined)
T/C (dose: 3.12 mg/kg/injection, schedule: Q01DX009 (ip), vehicle: saline): 150 % of control and 154 % of control
T/C [19]: 172 % of control
T/C (dose: 8.2 mg/kg/injection, schedule: Q01DX009 (ip), vehicle: saline): 161 % of control
T/C [17]: 154 % of control

CC(C)(Br)C(=O)c1ccc(-c2ccccc2)cc1
T/C [1]: 109 % of control
T/C [2]: 96 % of control
T/C (dose: 25.0 mg/kg/injection, schedule: Q04DX003 (ip), vehicle: water): 107 % of control
T/C [3]: 117 % of control
T/C [8]: 107 % of control
T/C [4]: 102 % of control
T/C (dose: 100.0 mg/kg/injection, schedule: Q04DX003 (ip), vehicle: Klucel (hydroxypropylcellulose) (HPC)): 90 % of control
T/C [5]: 107 % of control
T/C [6]: 109 % of control
T/C (dose: 200.0 mg/kg/injection, schedule: Q04DX003 (ip), vehicle: Klucel (hydroxypropylcellulose) (HPC)): 100 % of control
T/C [9]: 107 % of control
T/C [7]: 117 % of control
T/C (dose: 400.0 mg/kg/injection, schedule: Q04DX003 (ip), vehicle: Klucel (hydroxypropylcellulose) (HPC)): 100 % of control
T/C (dose: 400.0 mg/kg/injection, schedule: Q04DX003 (ip), vehicle: water): 110 % of control

CCN(CC)CCOC(=O)c1ccc(NC(=O)Nc2ccc(C(=O)OCCN(CC)CC)cc2)cc1
T/C [10]: 119 % of control

O=C(/C=N/O)c1cccnc1
T/C (dose: 25.0 mg/kg/injection, schedule: Q04DX003 (ip), vehicle: saline sonified): 100 % of control
T/C (dose: 50.0 mg/kg/injection, schedule: Q04DX003 (ip), vehicle: saline sonified): 95 % of control
T/C [14]: 100 % of control

Nc1ccn(CC(=O)c2ccco2)c(=O)n1
T/C [19]: 109 % of control
T/C (dose: 12.5 mg/kg/injection, schedule: Q01DX009 (ip), vehicle: saline): 95 % of control
T/C [17]: 95 % of control and 109 % of control
T/C [15]: 86 % of control
T/C [18]: 105 % of control
T/C [16]: 105 % of control

CC(=O)OC1C2(CC3N4C(=O)C5(CO)SSC4(CC31O)C(=O)N5C)OC(C)C(C)(C)C2=O (centres undefined)
T/C (dose: 3.13 mg/kg/injection, schedule: Q01DX009 (oral), vehicle: saline): 95 % of control
T/C (dose: 6.25 mg/kg/injection, schedule: Q01DX009 (oral), vehicle: saline): 100 % of control
T/C (dose: 12.5 mg/kg/injection, schedule: Q01DX009 (oral), vehicle: saline): 103 % of control
